Reference: patent US4820694A, “Modifications of 3-O-demethylmycinose in macrocin and lactenocin” (priority 1986, dated 1989)
≈ marks a conversion by molar mass, not a printed value. Where two headings read alike, the source gives them in different places.

Experiments:
Escherichia coli EC14 = assay: standard agar-dilution MIC assay; type: cell-based; conditions: agar-dilution, read-out: MIC
Procedure: (§1) The MIC's in Table III were determined by standard agar-dilution assays. The MIC's in Table IV were obtained using conventional brothdilution microtiter tests.

[1] = system: Klebsiella pneumoniae X68; assay: standard agar-dilution MIC assay; type: cell-based; conditions: Klebsiella pneumoniae, X68; agar-dilution; read-out: MIC
Procedure: as §1

[2] = system: Pseudomonas aeruginosa X239; assay: standard agar-dilution MIC assay; type: cell-based; conditions: Pseudomonas aeruginosa, X239; agar-dilution; read-out: MIC
Procedure: as §1

[3] = system: Staphylococcus aureus V41; assay: standard agar-dilution MIC assay; type: cell-based; conditions: Staphylococcus aureus, V41
Procedure: as §1

[4] = system: Staphylococcus aureus X1.1; assay: standard agar-dilution MIC assay; type: cell-based; conditions: Staphylococcus aureus, X1.1
Procedure: as §1

[5] = system: Staphylococcus aureus X400; assay: standard agar-dilution MIC assay; type: cell-based; conditions: Staphylococcus aureus, X400
Procedure: as §1

[6] = system: Staphylococcus epidermidis EP12; assay: standard agar-dilution MIC assay; type: cell-based
Procedure: as §1

[7] = system: Staphylococcus epidermidis EPI1; assay: standard agar-dilution MIC assay; type: cell-based; conditions: Staphylococcus epidermidis, EPI1
Procedure: as §1

[8] = system: Streptococcus Group D 9960; assay: standard agar-dilution MIC assay; type: cell-based; conditions: GROUPD9960, read-out: MIC
Procedure: as §1

[9] = system: Streptococcus Group D X66; assay: standard agar-dilution MIC assay; type: cell-based; conditions: read-out: MIC
Procedure: as §1

[10] = system: Streptococcus pyogenes C203; assay: standard agar-dilution MIC assay; type: cell-based; conditions: Streptococcus pyogenes, C203
Procedure: as §1

[11] = system: Staphylococcus aureus S13E; assay: microbe, parasite or virus in culture; type: cell-based; conditions: Staphylococcus aureus, S13E
Procedure: as §1

[12] = system: Streptococcus pneumoniae Park I; assay: microbe, parasite or virus in culture; type: cell-based; conditions: Streptococcus pneumoniae
Procedure: as §1

[13] = system: Bordetella bronchiseptica; assay: broth-dilution microtiter MIC test; type: cell-based; conditions: Bordetella bronchiseptica; broth-dilution microtiter; read-out: MIC
Procedure: as §1

[14] = system: Mycoplasma gallisepticum 15E; assay: broth-dilution microtiter MIC test; type: cell-based; conditions: Mycoplasmoides gallisepticum, 15E
Procedure: as §1

[15] = system: Mycoplasma gallisepticum 29C; assay: broth-dilution microtiter MIC test; type: cell-based; conditions: Mycoplasmoides gallisepticum, 29C
Procedure: as §1

[16] = system: Mycoplasma gallisepticum 36H; assay: broth-dilution microtiter MIC test; type: cell-based; conditions: Mycoplasmoides gallisepticum, 36H
Procedure: as §1

Mycoplasma hyorhinis 29E = assay: broth-dilution microtiter MIC test; type: cell-based; conditions: Mycoplasma, 29E
Procedure: as §1

Mycoplasma synoviae 40A = assay: broth-dilution microtiter MIC test; type: cell-based; conditions: Mycoplasmopsis synoviae, 40A
Procedure: as §1

[17] = system: Pasteurella hemolytica 22C; assay: broth-dilution microtiter MIC test; type: cell-based; conditions: Pasteurella, 22C; broth-dilution microtiter; read-out: MIC
Procedure: as §1

[18] = system: Pasteurella hemolytica 23C; assay: broth-dilution microtiter MIC test; type: cell-based; conditions: Pasteurella, 23C; broth-dilution microtiter; read-out: MIC
Procedure: as §1

[19] = system: Pasteurella hemolytica 41D; assay: broth-dilution microtiter MIC test; type: cell-based; conditions: Pasteurella, 41D; broth-dilution microtiter; read-out: MIC
Procedure: as §1

[20] = system: Pasteurella multocida 17E; assay: broth-dilution microtiter MIC test; type: cell-based; conditions: Pasteurella multocida, 17E
Procedure: as §1

[21] = system: Pasteurella multocida 22A; assay: broth-dilution microtiter MIC test; type: cell-based; conditions: Pasteurella multocida, 22A; broth-dilution microtiter; read-out: MIC
Procedure: as §1

[22] = system: Pasteurella multocida 40G; assay: broth-dilution microtiter MIC test; type: cell-based; conditions: Pasteurella multocida, 40G; broth-dilution microtiter; read-out: MIC
Procedure: as §1

[23] = system: Pasteurella multocida 60A; assay: broth-dilution microtiter MIC test; type: cell-based; conditions: Pasteurella multocida, 60A; broth-dilution microtiter; Avian isolate; read-out: MIC
Procedure: as §1

[24] = system: Pasteurella multocida 68C; assay: broth-dilution microtiter MIC test; type: cell-based; conditions: Pasteurella multocida, 68C
Procedure: as §1

[25] = system: Staphylococcus aureus 19C; assay: broth-dilution microtiter MIC test; type: cell-based; conditions: Staphylococcus aureus, 19C
Procedure: as §1

Streptococcus sp. 19F = assay: broth-dilution microtiter MIC test; type: cell-based; conditions: Streptococcus, SP.19F
Procedure: as §1

[26] = system: Streptococcus pyogenes C203; assay: protection of mice experimentally infected with S. pyogenes C203; type: in vivo; conditions: mice, mg/kg × 2, doses given 1 and 4 hours postinfection, read-out: ED50
Procedure: The formula 1 compounds have shown in vivo antimicrobial activity against experimentally-induced infections in laboratory animals. When two doses of test compound were administered to mice experimentally infected with S. pyrogenes C203, the activity observed was measured as an ED50 value [effective dose in mg/kg to protect 50% of the test animals: see Warren Wick, et al., J. Bacteriol. 81, 233-235 (1961)].
^a mg/kg × 2; doses given 1 and 4 hours postinfection

[27] = system: Haemophilus influenzae 76; assay: standard agar-dilution MIC assay; type: cell-based; conditions: Haemophilus influenzae, 76; agar-dilution; Ampicillin-resistant strain; read-out: MIC
Procedure: as §1

[28] = system: Haemophilus influenzae C.L.; assay: standard agar-dilution MIC assay; type: cell-based; conditions: Haemophilus influenzae; agar-dilution; Ampicillin-sensitive strain; read-out: MIC
Procedure: as §1

Row | SMILES | MIC (Escherichia coli EC14) [µg/mL] | MIC [1] [µg/mL] | MIC [2] [µg/mL] | MIC [3] [µg/mL] | MIC [4] [µg/mL] | MIC [5] [µg/mL] | MIC [6] [µg/mL] | MIC [7] [µg/mL] | MIC [8] [µg/mL] | MIC [9] [µg/mL] | MIC [10] [µg/mL] | MIC [11] [µg/mL] | MIC [12] [µg/mL] | MIC [13] [µg/mL] | MIC [14] [µg/mL] | MIC [15] [µg/mL] | MIC [16] [µg/mL] | MIC (Mycoplasma hyorhinis 29E) [µg/mL] | MIC (Mycoplasma synoviae 40A) [µg/mL] | MIC [17] [µg/mL] | also measured
1 | CCC1OC(=O)CC(O)C(C)C(OC2OC(C)C(OC3CC(C)(O)C(O)C(C)O3)C(N(C)C)C2OC(C)=O)C(CC=O)CC(C)C(=O)C=CC(C)=CC1COC1OC(C)C(OC(=O)COc2ccccc2)C(O)C1OC (centres unmarked) [Compound 13, 2'-O-Acetyl-4'"-O-phenoxyacetyl-macrocin] | > 128 | > 128 | > 128 | 1 (≈ 0.927 µM) | 1 (≈ 0.927 µM) | 2 (≈ 1.85 µM) | 2 (≈ 1.85 µM) | 1 (≈ 0.927 µM) | 1 (≈ 0.927 µM) | 1 (≈ 0.927 µM) | 1 (≈ 0.927 µM) | 2 (≈ 1.85 µM) | 0.25 (≈ 0.232 µM) | > 50 | 12.5 (≈ 11.6 µM) | 0.39 (≈ 0.362 µM) | 12.5 (≈ 11.6 µM) | 3.12 (≈ 2.89 µM) | 0.39 (≈ 0.362 µM) | > 50 | MIC [18]: > 50 µg/mL; MIC [19]: > 50 µg/mL; MIC [20]: 50 µg/mL (≈ 46.4 µM); MIC [21]: > 50 µg/mL; MIC [22]: > 50 µg/mL; MIC [23]: > 50 µg/mL; MIC [24]: 50 µg/mL (≈ 46.4 µM); MIC [25]: 3.12 µg/mL (≈ 2.89 µM); MIC (Streptococcus sp. 19F): 1.56 µg/mL (≈ 1.45 µM); ED50 ([26]; C203, Oral): > 100 mg/kg; ED50 ([26]; C203, sc, Subcutaneous): 7.2 mg/kg
2 | CCC1OC(=O)CC(O)C(C)C(OC2OC(C)C(OC3CC(C)(O)C(O)C(C)O3)C(N(C)C)C2OC(C)=O)C(CC=O)CC(C)C(=O)C=CC(C)=CC1COC1OC(C)C(OC(C)=O)C(OC(=O)COc2ccccc2)C1OC (centres unmarked) [Compound 19, 2',4'"-Di-O-acetyl-3'"-O-phenoxyacetyl-macrocin] | > 128 | > 128 | > 128 | 1 (≈ 0.893 µM) | 1 (≈ 0.893 µM) | 2 (≈ 1.79 µM) | 1 (≈ 0.893 µM) | 1 (≈ 0.893 µM) | 2 (≈ 1.79 µM) | 2 (≈ 1.79 µM) | 0.5 (≈ 0.446 µM) | 1 (≈ 0.893 µM) | 0.25 (≈ 0.223 µM) | > 50 | 25 (≈ 22.3 µM) | 0.78 (≈ 0.696 µM) | 50 (≈ 44.6 µM) | 3.12 (≈ 2.78 µM) | 0.78 (≈ 0.696 µM) | > 50 | MIC [27]: > 128 µg/mL; MIC [28]: > 128 µg/mL; MIC [18]: > 50 µg/mL; MIC [19]: > 50 µg/mL; MIC ([20]; broth-dilution microtiter, Bovine isolate, read-out: MIC): > 50 µg/mL; MIC [21]: > 50 µg/mL; MIC [22]: > 50 µg/mL; MIC [23]: > 50 µg/mL; MIC ([24]; broth-dilution microtiter, read-out: MIC): > 50 µg/mL; MIC [25]: 6.25 µg/mL (≈ 5.58 µM); MIC (Streptococcus sp. 19F): 1.56 µg/mL (≈ 1.39 µM)
